Laboratory results reported in patent publication US20250074892A1, “CARBONYL BRIDGED HETEROCYCLIC COMPOUND, AND COMPOSITION AND APPLICATION THEREOF” (BEIJING SCITECH-MQ PHARMACEUTICALS LIMITED, priority 2022, published 2025).
Where two headings read alike, the source gives them in different places.

Columns and labels:
[1] = Rat PK&BBB (pharmacokinetics and brain penetration); format: in vivo, SD rats; details: for clearance: read-out: Cl—obs; for bioavailability: PO 30 mg/kg vs IV 3 mg/kg; for Kp at 2 h / concentration at 2 h / concentration at 0 h / concentration at 0.083 h / concentration at 0.25 h / concentration at 0.5 h / concentration at 1 h / concentration at 4 h / concentration at 7 h / concentration at 24 h: Sprague-Dawley; for Kp at 2 h: brain / whole blood, read-out: Brain/blood ratio
Procedure: (§1) In this assay, the pharmacokinetic characteristics and ability to penetrate the blood-brain barrier of the compounds of the present application were assayed after administration of some of the compounds of the present application to SD rats, CD-1 mice or beagle dogs by single oral administration and intravenous injection.
(§2) 1. Intravenous (IV) injection group: an appropriate amount of the assay compound was weighed, and completely dissolved in an appropriate volume of vehicle. The mixture was stirred, vortexed and/or sonicated. Once a solution was obtained, the vehicle was gradually added to a final volume to reach the target concentration. The solution was vortexed, and sonicated to obtain a homogeneous solution. The solution was filtered through a 0.22 m PVDF membrane.
as §2, with “2. Oral (PO)” for “1. Intravenous (IV) injection”, “solution.” for “solution. The solution was filtered through a 0.22 m PVDF membrane.”
(§3) Meanwhile, the IV group was not fasted and the PO group was fasted overnight (>12 hrs) and given food 2 hrs after drug administration. All animals had free access to water. The dosing regimen and pharmacokinetic sampling regimen are given in Table 10 and Table 11 below, respectively.
Rats were administered according to the above protocol, and blood and brain tissue samples were collected and processed at predetermined time points (collection and processing were performed according to conventional methods in the art).
(§4) The brain was weighed and homogenized by adding 4 times of ultrapure water. Six times volume of acetonitrile was added respectively to the whole blood samples and brain homogenate (20 times volume of acetonitrile was added to the whole blood sample of mouse PK). The mixture was vortexed for 1 min and then centrifuged at 4° C., 4500 rpm for 15 min. According to the instrument response, the supernatant was diluted with diluent and the sample was analyzed by LC/MS.
(§5) Pharmacokinetic parameters were calculated using WinNonlin software. The following pharmacokinetic parameters were calculated if appropriate plasma/whole blood drug concentration-time data were available: CL (clearance); Vd (apparent volume of distribution); T1/2 (elimination half-life time); Cmax (peak concentration); Tmax (time to peak); AUC (area under plasma drug concentration-time curve); MRT (mean retention time); F % (bioavailability).

HT29 cells = test: Inhibition of cell necrosis (CCK8 method), HT29 cells; format: cell-based, human; details: Homo sapiens, HT-29, 16 h, HT29, Human TNF-α/AT-406/Z-VAD-FMK, 16 hours, CCK8
How it was run: (§6)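 HT29 (1.2×10^4/well) and L929 (2.0×10^4/well) cells were pretreated 30 min with compound, 9-point 4-fold series from 10 μM in duplicate. Necrosis was induced with human TNF-α 20 ng/mL, AT-406 […] and Z-VAD-FMK 20 μM for 16 h (HT29), or murine TNF-α 20 ng/mL and Z-VAD-FMK 25 μM for 4-8 h (L929). CCK8 viability; IC50 from dose-effect curve.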

L929 cells = test: Inhibition of cell necrosis (CCK8 method), L929 cells; format: cell-based, mouse; details: Mus musculus, L929, L929, Murine TNF-α/Z-VAD-FMK, 4-8 hours, CCK8
How it was run: as §6

[2] = Beagle PK (pharmacokinetics); format: in vivo, beagle dogs; details: whole blood, Beagle dog
Procedure: as §1, §2
as §2, with “2. Oral (PO)” for “1. Intravenous (IV) injection”, “solution.” for “solution. The solution was filtered through a 0.22 m PVDF membrane.”
as §3, §4, §5

[3] = PO 30 mg/kg, 2 h after administration
[4] = rat, brain, po, 30 mg/kg, PO 30 mg/kg, 2 h after administration, read-out: Brain concentration
[5] = rat, whole blood, iv, 3 mg/kg, IV 3 mg/kg, read-out: Blood drug concentration
[6] = rat, whole blood, iv, 3 mg/kg, IV 3 mg/kg, 2 hr, read-out: Blood drug concentration
[7] = rat, whole blood, po, 30 mg/kg, PO 30 mg/kg, read-out: Blood drug concentration
[8] = rat, whole blood, po, 30 mg/kg, PO 30 mg/kg, 2 hr, read-out: Blood drug concentration
[9] = rat, whole blood, po, 30 mg/kg, PO 30 mg/kg, 24 hr, read-out: Blood drug concentration
[10] = rat, whole blood, po, 30 mg/kg, PO 30 mg/kg, whole blood, 2 h after administration, read-out: Blood drug concentration
[11] = IV 1 mg/kg, read-out: Blood drug concentration
[12] = PO 3 mg/kg, read-out: Blood drug concentration

O=C(C1CCN(c2cc(-c3cc(OCCCO)ccc3F)ccn2)CC1)N1N=CC[C@H]1c1cc(F)cc(F)c1 (racemic) [Example 40]
AUC(0-inf) ([1]; SD, whole blood, IV 3 mg/kg): 592 ± 57 ng·h/mL
AUC(0-t) ([1]; SD, whole blood, IV 3 mg/kg): 588 ± 56 ng·h/mL
Vd ([1]; SD, whole blood, IV 3 mg/kg): 7.84 ± 0.5 L/kg
half-life ([1]; SD, whole blood, IV 3 mg/kg): 64.2 ± 4.8 min
clearance ([1]; SD, whole blood, IV 3 mg/kg): 85 ± 8.4 mL/min/kg
AUC(0-inf) ([1]; SD, whole blood, PO 30 mg/kg): 1970 ± 768 ng·h/mL
AUC(0-t) ([1]; SD, whole blood, PO 30 mg/kg): 1900 ± 868 ng·h/mL
Cmax ([1]; SD, whole blood, PO 30 mg/kg): 581 ± 228 ng/mL
Tmax ([1]; SD, whole blood, PO 30 mg/kg): 1.17 ± 0.76 h
half-life ([1]; SD, whole blood, PO 30 mg/kg): 170 ± 27.6 min
bioavailability ([1]; SD, whole blood): 33.2 ± 13%
Kp at 2 h [1, 3]: 1.13
concentration at 2 h [1, 4]: 309 ng/g
concentration at 0 h [1, 5]: 0 ng/mL
concentration at 0.083 h [1, 5]: 865 ± 45 ng/mL
concentration at 0.25 h [1, 5]: 496 ± 33 ng/mL
concentration at 0.5 h [1, 5]: 295 ± 29 ng/mL
concentration at 1 h [1, 5]: 119 ± 14 ng/mL
concentration at 2 h [1, 6]: 61.9 ± 8.5 ng/mL
concentration at 4 h [1, 5]: 13.2 ± 5 ng/mL
concentration at 7 h [1, 5]: 2.37 ± 0.77 ng/mL
concentration at 0 h [1, 7]: 0 ng/mL
concentration at 0.25 h [1, 7]: 185 ± 86 ng/mL
concentration at 0.5 h [1, 7]: 416 ± 92 ng/mL
concentration at 1 h [1, 7]: 547 ± 248 ng/mL
concentration at 2 h [1, 8]: 372 ± 258 ng/mL
concentration at 4 h [1, 7]: 109 ± 99 ng/mL
concentration at 7 h [1, 7]: 59.8 ± 34.9 ng/mL
concentration at 24 h [1, 9]: 0.93 ng/mL
concentration at 2 h [1, 10]: 274 ng/mL
IC50 (HT29 cells): ≤ 10 nM
IC50 (L929 cells): 10 to 50 nM

CC(C)(O)COc1ccc(F)c(-c2ccnc(N3CCC(C(=O)N4N=CC[C@H]4c4cc(F)cc(F)c4)CC3)c2)c1 (racemic) [Example 42]
concentration at 24 hr ([1]; SD, rat, whole blood, iv, 3 mg/kg, IV 3 mg/kg, 24 hr, read-out: Blood drug concentration): 19.9 ± 2.4 ng/mL
AUC(0-inf) ([1]; SD, whole blood, IV 3 mg/kg): 4140 ± 234 ng·h/mL
AUC(0-t) ([1]; SD, whole blood, IV 3 mg/kg): 3990 ± 225 ng·h/mL
Vd ([1]; SD, whole blood, IV 3 mg/kg): 5.5 ± 0.38 L/kg
half-life ([1]; SD, whole blood, IV 3 mg/kg): 315 ± 8.4 min
clearance ([1]; SD, whole blood, IV 3 mg/kg): 12.1 ± 0.7 mL/min/kg
AUC(0-inf) ([1]; SD, whole blood, PO 30 mg/kg): 26500 ± 3060 ng·h/mL
AUC(0-t) ([1]; SD, whole blood, PO 30 mg/kg): 24200 ± 2750 ng·h/mL
Cmax ([1]; SD, whole blood, PO 30 mg/kg): 1580 ± 205 ng/mL
Tmax ([1]; SD, whole blood, PO 30 mg/kg): 6 ± 1.73 h
half-life ([1]; SD, whole blood, PO 30 mg/kg): 380 ± 93.6 min
bioavailability ([1]; SD, whole blood): 64 ± 7.4%
Kp at 2 h [1, 3]: 0.915
concentration at 2 h [1, 4]: 1970 ng/g
concentration at 0 h [1, 5]: 0 ng/mL
concentration at 0.083 h [1, 5]: 798 ± 302 ng/mL
concentration at 0.25 h [1, 5]: 565 ± 166 ng/mL
concentration at 0.5 h [1, 5]: 445 ± 70 ng/mL
concentration at 1 h [1, 5]: 368 ± 53 ng/mL
concentration at 2 h [1, 6]: 303 ± 39 ng/mL
concentration at 4 h [1, 5]: 269 ± 25 ng/mL
concentration at 7 h [1, 5]: 199 ± 23 ng/mL
concentration at 0 h [1, 7]: 0 ng/mL
concentration at 0.25 h [1, 7]: 266 ± 89 ng/mL
concentration at 0.5 h [1, 7]: 654 ± 74 ng/mL
concentration at 1 h [1, 7]: 1250 ± 67 ng/mL
concentration at 2 h [1, 8]: 1300 ± 178 ng/mL
concentration at 4 h [1, 7]: 1380 ± 387 ng/mL
concentration at 7 h [1, 7]: 1550 ± 153 ng/mL
concentration at 24 h [1, 9]: 237 ± 95 ng/mL
concentration at 2 h [1, 10]: 2150 ng/mL
IC50 (HT29 cells): ≤ 10 nM
AUC(0-inf) ([2]; IV 1 mg/kg): 3380 ± 342 ng·h/mL
AUC(0-t) ([2]; IV 1 mg/kg): 2920 ± 268 ng·h/mL
Vd ([2]; IV 1 mg/kg): 3.7 ± 1.05 L/kg
half-life ([2]; IV 1 mg/kg): 523 ± 180 min
concentration at 0 hr [2, 11]: 0 ng/mL
concentration at 0.083 hr ([2]; IV 1 mg/kg, 0.083 hr, read-out: Blood drug concentration): 535 ± 62 ng/mL
concentration at 0.25 hr [2, 11]: 451 ± 77 ng/mL
concentration at 0.5 h [2, 11]: 390 ± 13 ng/mL
concentration at 1 h [2, 11]: 253 ± 49 ng/mL
concentration at 2 h [2, 11]: 236 ± 69 ng/mL
concentration at 4 h [2, 11]: 176 ± 29 ng/mL
concentration at 7 h [2, 11]: 133 ± 14 ng/mL
concentration at 24 hr ([2]; IV 1 mg/kg, 24 hr, read-out: Blood drug concentration): 32.9 ± 13.5 ng/mL
clearance ([2]; IV 1 mg/kg, read-out: Cl—obs): 4.97 ± 0.51 mL/min/kg
AUC(0-inf) ([2]; PO 3 mg/kg): 18000 ± 939 ng·h/mL
AUC(0-t) ([2]; PO 3 mg/kg): 11200 ± 2940 ng·h/mL
Cmax ([2]; PO 3 mg/kg): 1510 ± 396 ng/mL
Tmax ([2]; PO 3 mg/kg): 1.17 ± 0.76 h
half-life ([2]; PO 3 mg/kg): 1090 ± 300 min
bioavailability ([2]; PO 3 mg/kg vs IV 1 mg/kg): 127 ± 28%
concentration at 0 hr [2, 12]: 0 ng/mL
concentration at 0.25 hr [2, 12]: 645 ± 362 ng/mL
concentration at 0.5 h [2, 12]: 1320 ± 406 ng/mL
concentration at 1 h [2, 12]: 1170 ± 696 ng/mL
concentration at 2 h [2, 12]: 1320 ± 320 ng/mL
concentration at 4 h [2, 12]: 560 ± 231 ng/mL
concentration at 7 h [2, 12]: 406 ± 145 ng/mL
concentration at 24 h ([2]; PO 3 mg/kg, 24 hr, read-out: Blood drug concentration): 260 ± 19 ng/mL
IC50 (L929 cells): ≤ 10 nM
